Source: patent US10016382B2, “Method for decreasing skeletal muscle damage and/or oxidative stress in mammals” (LONZA INC., priority 2014, dated 2018)
“And” between values parts separate entries of the source, which are not always exact repeats. Equal values may be shown once.

What was measured:
[1] = tested on: Labrador Retrievers; assay: Activity by Actical monitors, long (endurance) runs, Example 1; assay type: in vivo, dog; settings: Ex.1, 250 mg/d; for Activity long runs, Least Sq Mean: average of 13 weekly long runs, mixed model
Text: Each test dog wore an Actical activity monitor from Philips Respironics on a collar for the short higher intensity runs and also wore an Actical activity monitor for the weekly longer endurance runs. The activity data was downloaded into spread sheets along with each dogs identity. Twenty four hours after each long run during the 13 wk running program each of the dogs were scored by kennel staff for soreness or any type of lameness The exercise program was decreased in a tapering program during wk 11 and 12 to allow the dogs to rest for the final long run completed on wk 13. Pre-run serum samples from each test dog was taken 24 hr before the last endurance run. The heart rate and basal body temperature was determined for each test dog prior to the last long endurance run. The distance and number of sprints affiliated with the short runs (marks) were decreased during wk 11 back to 1200 total yd/d or 2400 yd/wk and decreased again on wk 12 to 600 yd/d or a total of 1200 yd/wk to provide rest for the final long run on wk 13. The weekly endurance run was 5 miles in the beginning, increased by ½ mile per wk and was increased to a distance of 10 miles on the 10th week. The dogs ran only a 5 mile endurance run on wk 11 and only a 2 mile endurance run on wk 12 in order to rest for the final long run during the 13th wk. The endurance (long) runs for the 40 dogs were carried out on the 5th and 6th day of each wk for both treatments. Half of the dogs were run on Friday (5th d) and half of the dogs were run on the Saturday (6th d). The exercise regimen was finalized during the 13th week of the study by resting the dogs for 3 days and then running half of the dogs from each group for a 15 mile endurance run on Monday and the remaining 20 dogs were run the 15 mile endurance run on Tuesday. The longer endurance type runs were slightly slower to enhance fat oxidation and represent an exercise intensity equivalent to 50%-65% VO2 max. Performance and Recovery Time: An Actical monitor (Philips Respironics) was worn around the neck of each dog on a collar and utilized to evaluate the amount of movement (measured total movements and intensity) for each dog for the purpose of evaluating equal work between treatments and also to evaluate the individual work intensity while completing the daily retrieves. Each dog wore the Actical monitor for each long run and wore the Actical monitor for the final 15 mile run. The Actical monitor data was downloaded to a computer for evaluation. Statistical Methods: GraphPad Prism 6.0 was used to compare means between groups for run time, food intake, body weight, and changes in blood chemistry using an unpaired t-test. Results were considered significant if a p-value of 0.05 was obtained. JMP 10.0.2 was used to create a mixed model for long runs, short runs, body composition, and blood chemistry.

[2] = tested on: Labrador Retrievers; assay: Subjective recovery score (soreness, lameness) after long runs, Example 1; assay type: in vivo, dog; settings: Ex.1, 250 mg/d; observed 24 hr following each long run; either treatment
Text: Each test dog wore an Actical activity monitor from Philips Respironics on a collar for the short higher intensity runs and also wore an Actical activity monitor for the weekly longer endurance runs. The activity data was downloaded into spread sheets along with each dogs identity. Twenty four hours after each long run during the 13 wk running program each of the dogs were scored by kennel staff for soreness or any type of lameness The exercise program was decreased in a tapering program during wk 11 and 12 to allow the dogs to rest for the final long run completed on wk 13. Pre-run serum samples from each test dog was taken 24 hr before the last endurance run. The heart rate and basal body temperature was determined for each test dog prior to the last long endurance run. A subjective recovery score was determined 24 hours after endurance run for each test dog once per week. The subjective recovery score (1-5; score of 1 for no soreness or stiffness in limbs and a score of 5 meant major soreness and stiffness) was based on ease of movement and soreness of each dog. The same subjective system was used 6 hr after the long 15 mile run and again at 24 and 48 hr to evaluate the recovery of the dogs as far as soreness and desire to move.

## C[N+](C)(C)C[C@H](O)CC(=O)[O-] [L-carnitine]
[1]; Week 1, both sexes
  Activity long runs, APM/lb Mean: 1535 Movements/Mile/LB BW
[1]; Week 1, females
  Activity long runs, APM/lb Mean: 1825 Movements/Mile/LB BW
[1]; Week 1, males
  Activity long runs, APM/lb Mean: 1298 Movements/Mile/LB BW
[1]; Week 2, both sexes
  Activity long runs, APM/lb Mean: 1385 Movements/Mile/LB BW
[1]; Week 2, females
  Activity long runs, APM/lb Mean: 1616 Movements/Mile/LB BW
[1]; Week 2, males
  Activity long runs, APM/lb Mean: 1177 Movements/Mile/LB BW
[1]; Week 3, both sexes
  Activity long runs, APM/lb Mean: 1298 Movements/Mile/LB BW
[1]; Week 3, females
  Activity long runs, APM/lb Mean: 1559 Movements/Mile/LB BW
[1]; Week 3, males
  Activity long runs, APM/lb Mean: 1065 Movements/Mile/LB BW
[1]; Week 4, both sexes
  Activity long runs, APM/lb Mean: 1334 Movements/Mile/LB BW
[1]; Week 4, females
  Activity long runs, APM/lb Mean: 1522 Movements/Mile/LB BW
[1]; Week 4, males
  Activity long runs, APM/lb Mean: 1093 Movements/Mile/LB BW
[1]; Week 5, both sexes
  Activity long runs, APM/lb Mean: 1288 Movements/Mile/LB BW
[1]; Week 5, females
  Activity long runs, APM/lb Mean: 1582 Movements/Mile/LB BW
[1]; Week 5, males
  Activity long runs, APM/lb Mean: 1048 Movements/Mile/LB BW
[1]; Week 6, both sexes
  Activity long runs, APM/lb Mean: 1278 Movements/Mile/LB BW
[1]; Week 6, females
  Activity long runs, APM/lb Mean: 1472 Movements/Mile/LB BW
[1]; Week 6, males
  Activity long runs, APM/lb Mean: 1105 Movements/Mile/LB BW
[1]; Week 7, both sexes
  Activity long runs, APM/lb Mean: 1264 Movements/Mile/LB BW
[1]; Week 7, females
  Activity long runs, APM/lb Mean: 1391 Movements/Mile/LB BW
[1]; Week 7, males
  Activity long runs, APM/lb Mean: 1162 Movements/Mile/LB BW
[1]; Week 8, both sexes
  Activity long runs, APM/lb Mean: 1241 Movements/Mile/LB BW
[1]; Week 8, females
  Activity long runs, APM/lb Mean: 1437 Movements/Mile/LB BW
[1]; Week 8, males
  Activity long runs, APM/lb Mean: 1081 Movements/Mile/LB BW
[1]; Week 9, both sexes
  Activity long runs, APM/lb Mean: 1194 Movements/Mile/LB BW
[1]; Week 9, females
  Activity long runs, APM/lb Mean: 1355 Movements/Mile/LB BW
[1]; Week 9, males
  Activity long runs, APM/lb Mean: 1062 Movements/Mile/LB BW
[1]; Week 10, both sexes
  Activity long runs, APM/lb Mean: 1192 Movements/Mile/LB BW
[1]; Week 10, females
  Activity long runs, APM/lb Mean: 1385 Movements/Mile/LB BW
[1]; Week 10, males
  Activity long runs, APM/lb Mean: 1018 Movements/Mile/LB BW
[1]; Week 11, both sexes
  Activity long runs, APM/lb Mean: 1364 Movements/Mile/LB BW
[1]; Week 11, females
  Activity long runs, APM/lb Mean: 1655 Movements/Mile/LB BW
[1]; Week 11, males
  Activity long runs, APM/lb Mean: 1126 Movements/Mile/LB BW
[1]; Week 13, both sexes
  Activity long runs, APM/lb Mean: 1116 Movements/Mile/LB BW
[1]; Week 13, females
  Activity long runs, APM/lb Mean: 1251 Movements/Mile/LB BW
[1]; Week 13, males
  Activity long runs, APM/lb Mean: 1006 Movements/Mile/LB BW
[1]; both sexes
  Activity long runs, Least Sq Mean: 1317 Movements/Mile/LB BW and 1317.0647 Movements/Mile/LB BW
[1]; females
  Activity long runs, Least Sq Mean: 1509 Movements/Mile/LB BW and 1509.2493 Movements/Mile/LB BW
[1]; males
  Activity long runs, Least Sq Mean: 1124 Movements/Mile/LB BW and 1124.8801 Movements/Mile/LB BW
[2]
  Lameness or soreness after long runs (score 1-5): no noticeable effects
